Test results reported in ChEMBL document CHEMBL1201862, “PubChem BioAssay data set” (2004).
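In this assay, cells in 96-well plates receive the compound at five concentrations for 48 hours. Endpoints are linearly interpolated between the surrounding concentrations. GI50 is the concentration that inhibits growth by half.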 Calls of active or inactive are those of the source. Rule as the data show it: active = GI50 up to about 1.1 µM and inactive = higher.

Columns and labels:
Assay in all cases: NCI tumour cell line growth inhibition, 48 h
LXFL 529 = test system: LXFL 529
MOLT-4 = test system: MOLT-4
SF-268 = test system: SF-268
SK-OV-3 = test system: SK-OV-3
CCRF-CEM = test system: CCRF-CEM
COLO 205 = test system: COLO 205
HOP-62 = test system: HOP-62
SK-MEL-2 = test system: SK-MEL-2
RXF 393 = test system: RXF 393
OVCAR-3 = test system: OVCAR-3
UACC-62 = test system: UACC-62
Malme-3M = test system: Malme-3M
SN12C = test system: SN12C
786-0 = test system: 786-0
M19-MEL = test system: M19-MEL
SF-539 = test system: SF-539

Measured: GI50

CN1CCOC(c2ccccc2)O1 (configuration not stated)
inactive: LXFL 529 > 100 µM | MOLT-4 > 100 µM | SF-268 > 100 µM | SK-OV-3 > 100 µM | CCRF-CEM > 100 µM | COLO 205 > 100 µM | HOP-62 > 100 µM | SK-MEL-2 > 100 µM | RXF 393 > 100 µM | OVCAR-3 > 100 µM | UACC-62 > 100 µM | Malme-3M > 100 µM | SN12C > 100 µM | 786-0 > 100 µM | M19-MEL > 100 µM | SF-539 > 100 µM

O=C(Nc1ccccc1-c1n[nH]c(S)nc1=O)C(F)(F)F
inactive: LXFL 529 > 100 µM | MOLT-4 > 100 µM | SF-268 > 100 µM | SK-OV-3 > 100 µM | CCRF-CEM > 100 µM | COLO 205 > 100 µM | HOP-62 > 100 µM | SK-MEL-2 > 100 µM | RXF 393 > 100 µM | OVCAR-3 > 100 µM | UACC-62 > 100 µM | Malme-3M > 100 µM | SN12C > 100 µM | 786-0 > 100 µM | M19-MEL > 100 µM | SF-539 > 100 µM

CC(C)=CC1CC(=[N+]=[N-])C(=O)C1(C)C (configuration not stated)
inactive: LXFL 529 > 100 µM | MOLT-4 > 100 µM | SF-268 > 100 µM | SK-OV-3 > 100 µM | CCRF-CEM > 53 µM | COLO 205 > 100 µM | HOP-62 > 100 µM | SK-MEL-2 > 100 µM | RXF 393 > 31.6 µM | OVCAR-3 > 100 µM | UACC-62 > 100 µM | Malme-3M > 100 µM | SN12C > 100 µM | 786-0 > 100 µM | M19-MEL > 100 µM | SF-539 > 100 µM

CN(C)CCN(C)CC1COC(C)(C)O1 (configuration not stated)
inactive: LXFL 529 > 100 µM | MOLT-4 > 100 µM | SF-268 > 100 µM | SK-OV-3 > 100 µM | CCRF-CEM > 100 µM | COLO 205 > 100 µM | HOP-62 > 100 µM | SK-MEL-2 > 100 µM | RXF 393 > 100 µM | OVCAR-3 > 100 µM | UACC-62 > 100 µM | Malme-3M > 100 µM | SN12C > 100 µM | 786-0 > 100 µM | M19-MEL > 100 µM | SF-539 > 100 µM

CCOC(=O)NC(=O)c1cn(CCCCCCOC(=O)NCCCCCCNC(=O)OCCCCCCn2cc(C(=O)NC(=O)OCC)c(=O)[nH]c2=O)c(=O)[nH]c1=O
inactive: LXFL 529 > 100 µM | MOLT-4 > 100 µM | SF-268 > 100 µM | SK-OV-3 > 100 µM | CCRF-CEM > 100 µM | COLO 205 > 100 µM | HOP-62 > 100 µM | SK-MEL-2 > 100 µM | RXF 393 > 100 µM | OVCAR-3 > 100 µM | UACC-62 > 100 µM | Malme-3M > 100 µM | SN12C > 100 µM | 786-0 > 100 µM | M19-MEL > 100 µM | SF-539 > 100 µM

CCOC(=O)C1C=C2O[C@@H]3OC4(CCCCC4)O[C@@H]3C2[C@H]2C(=O)C=CC(=O)[C@@]12C(=O)OC (some centres not stated)
inactive: LXFL 529 10.7 µM | MOLT-4 2.7 µM | SF-268 12.4 µM | SK-OV-3 18.2 µM | CCRF-CEM 2.84 µM | COLO 205 8.61 µM | HOP-62 20 µM | SK-MEL-2 16.1 µM | RXF 393 1.66 µM | OVCAR-3 7.89 µM | UACC-62 16.8 µM | Malme-3M 17.2 µM | SN12C 16.7 µM | 786-0 7.21 µM | M19-MEL 16 µM | SF-539 3.15 µM

O=CN/C=C/c1ccccc1O
inactive: LXFL 529 > 100 µM | MOLT-4 > 100 µM | SF-268 > 79.8 µM | SK-OV-3 > 100 µM | CCRF-CEM > 100 µM | COLO 205 > 100 µM | HOP-62 > 100 µM | SK-MEL-2 > 100 µM | RXF 393 > 100 µM | OVCAR-3 > 100 µM | UACC-62 > 100 µM | Malme-3M > 100 µM | SN12C > 100 µM | 786-0 > 100 µM | M19-MEL > 100 µM | SF-539 > 100 µM
